Reference: US20230257372A1 (CHONG KUN DANG PHARMACEUTICAL CORP., priority 2020, published 2023)
Where two headings read alike, the source gives them in different places.

Tests used:
human recombinant HDAC1 = molecular target: T1, human recombinant HDAC1 (Homo sapiens, UniProt Q13547); assay: HDAC1 enzyme activity inhibition (HDAC Fluorimetric Drug Discovery Kit); type: biochemical; conditions: read-out: HDAC1
T1 construct: purchased Enzo Life Science, Inc. BML-SE456
Outline: (§1)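 Fluorimetric deacetylase read-out. 5-fold compound dilutions; […] enzyme, 10 μM substrate; 30° C, 60 min; developer 30 min.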

[1] = system: hippocampal neurons from a Sprague-Dawley (SD) rat fetus; assay: Effect of HDAC6-specific inhibitor on axonal transport of mitochondria in amyloid-beta treated neurons; type: cell-based; conditions: transport velocity of mitochondria in neuronal axon after normalization; vehicle = 100%, amyloid beta treatment group = 0%; compound treatment for three hours
Procedure: On the 17th to 18th days (E17-18) of insemination, the hippocampal neurons from a Sprague-Dawley (SD) rat fetus were cultured in a culture container for imaging, which had been coated with extracellular matrix, and were treated with amyloid-beta protein fragments at a concentration of […]. In 24 hours later, the neurons were treated with the compound on the 8th day of in vitro culture. In three hours later, the resulting neurons were treated with MitoTracker Red CMXRos (Life Technologies, NY, USA) for last five minutes to stain mitochondria. An image on the axonal transport of stained neuron mitochondria was taken with a confocal microscope (Leica SP8; Leica microsystems, UK) at an interval of one second for one minute to measure a transport velocity of each mitochondria per second with an IMARIS analysis program (BITPLANE, Zurich, Switzerland).
In result, after setting a section, in which the group treated with amyloid-beta had shown a significant decrease in the transport velocity of mitochondria compared to a vehicle, it was confirmed for 1,3,4-oxadiazole triazol derivative compounds of the present invention, stereoisomers thereof or pharmaceutically acceptable salts thereof that the vehicles is represented as 100%, the amyloid beta treatment group is represented as 0%, a velocity distribution of the compound after normalization is represented as *, 0%˜50%; **, 50%˜100%; ***, >100%.

human recombinant HDAC6 = molecular target: T2, human recombinant HDAC6 (Homo sapiens, UniProt Q9UBN7); assay: HDAC6 enzyme activity inhibition (HDAC Fluorimetric Drug Discovery Kit); type: biochemical
T2 construct: purchased Calbiochem Inc. 382180
T2 sequence (Q9UBN7 1-1215): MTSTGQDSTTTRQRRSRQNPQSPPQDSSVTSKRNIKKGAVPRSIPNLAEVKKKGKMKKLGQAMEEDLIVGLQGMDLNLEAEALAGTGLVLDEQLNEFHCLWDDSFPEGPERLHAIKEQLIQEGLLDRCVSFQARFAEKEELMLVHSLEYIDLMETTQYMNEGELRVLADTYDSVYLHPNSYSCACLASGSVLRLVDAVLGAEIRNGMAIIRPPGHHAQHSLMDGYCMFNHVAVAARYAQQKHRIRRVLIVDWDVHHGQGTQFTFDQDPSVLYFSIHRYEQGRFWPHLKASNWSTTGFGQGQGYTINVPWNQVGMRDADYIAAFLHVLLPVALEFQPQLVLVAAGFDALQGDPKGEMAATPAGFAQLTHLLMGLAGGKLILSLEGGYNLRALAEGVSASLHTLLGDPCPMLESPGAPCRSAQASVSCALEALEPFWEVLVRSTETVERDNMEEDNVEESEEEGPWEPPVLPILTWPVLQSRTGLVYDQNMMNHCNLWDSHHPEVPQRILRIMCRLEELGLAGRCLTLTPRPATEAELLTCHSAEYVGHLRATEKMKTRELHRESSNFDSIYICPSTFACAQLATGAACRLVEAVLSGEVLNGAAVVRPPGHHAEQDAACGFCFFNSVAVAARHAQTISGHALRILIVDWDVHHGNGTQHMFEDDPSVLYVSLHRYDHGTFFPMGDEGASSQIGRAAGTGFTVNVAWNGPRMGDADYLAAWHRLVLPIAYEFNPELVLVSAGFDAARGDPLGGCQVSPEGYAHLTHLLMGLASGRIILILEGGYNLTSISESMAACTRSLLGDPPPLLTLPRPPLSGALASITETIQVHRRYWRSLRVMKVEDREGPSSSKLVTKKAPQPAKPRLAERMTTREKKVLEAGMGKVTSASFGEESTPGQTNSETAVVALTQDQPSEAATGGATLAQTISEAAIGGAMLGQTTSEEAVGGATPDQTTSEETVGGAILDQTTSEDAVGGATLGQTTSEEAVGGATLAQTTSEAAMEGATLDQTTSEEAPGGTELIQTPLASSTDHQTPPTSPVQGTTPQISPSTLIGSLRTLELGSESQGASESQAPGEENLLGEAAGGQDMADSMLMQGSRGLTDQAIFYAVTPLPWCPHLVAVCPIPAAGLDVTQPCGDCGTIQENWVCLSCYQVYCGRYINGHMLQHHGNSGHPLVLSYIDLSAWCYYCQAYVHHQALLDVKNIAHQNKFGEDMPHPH
Outline: as §1

[2] = human recombinant HDAC1, IC50 calculated with GraphPad Prism
[3] = human recombinant HDAC6, IC50 calculated with GraphPad Prism
[4] = human recombinant HDAC1, Fluor de Lys substrate, 30° C. 60 minutes
[5] = human recombinant HDAC6, same protocol as HDAC1

T1 sequence (Q13547 whole entry): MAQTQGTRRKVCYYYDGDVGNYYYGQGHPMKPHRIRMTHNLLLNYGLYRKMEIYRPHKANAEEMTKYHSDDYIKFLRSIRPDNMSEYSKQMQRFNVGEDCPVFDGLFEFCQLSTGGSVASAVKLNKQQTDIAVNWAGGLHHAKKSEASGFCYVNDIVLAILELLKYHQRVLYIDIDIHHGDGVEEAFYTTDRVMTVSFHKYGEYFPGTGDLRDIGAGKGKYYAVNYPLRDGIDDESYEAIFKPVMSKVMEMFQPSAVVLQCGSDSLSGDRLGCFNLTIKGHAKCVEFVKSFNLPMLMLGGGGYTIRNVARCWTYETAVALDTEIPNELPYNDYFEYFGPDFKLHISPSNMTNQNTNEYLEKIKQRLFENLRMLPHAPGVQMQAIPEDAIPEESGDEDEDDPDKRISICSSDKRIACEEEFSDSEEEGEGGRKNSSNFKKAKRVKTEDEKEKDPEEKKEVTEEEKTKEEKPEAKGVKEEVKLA

FC(F)c1nnc(-c2ccc(Cn3cc(-c4ccc5c(CN6CCOCC6)c[nH]c5c4)nn3)cc2)o1 [Compound 4134, 4-((6-(1-(4-(5-(difluoromethyl)-1,3,4-oxadiazol-2-yl)benzyl)-1H-1,2,3-triazol-4-yl)-1H-indol-3-yl)methyl)morpholine]
IC50 (human recombinant HDAC1; [2]): > 50000 nM
Velocity distribution (%) [1]: ** (**, 50%˜100%)
HDAC6 selectivity (fold) (human recombinant HDAC6; HDAC1 IC50 / HDAC6 IC50): 3030 fold
IC50 (human recombinant HDAC6; [3]): 16.5 nM

Fc1cc(-c2nnc(C(F)F)o2)ccc1Cn1cc(-c2ccc3c(CN4CCOCC4)c[nH]c3c2)nn1 [Compound 4112]
IC50 (human recombinant HDAC1; [2]): > 50000 nM
Velocity distribution (%) [1]: *** (***, >100%)
HDAC6 selectivity (fold) (human recombinant HDAC6; HDAC1 IC50 / HDAC6 IC50): 3125 fold
IC50 (human recombinant HDAC6; [3]): 16 nM

FC(F)c1nnc(-c2ccc(Cn3cc(-c4ccc5cc[nH]c5c4)nn3)cc2)o1 [Compound 4076, 2-(4-((4-(1H-indol-6-yl)-1H-1,2,3-triazol-1-yl)methyl)phenyl)-5-(difluoromethyl)-1,3,4-oxadiazole]
IC50 (human recombinant HDAC1; [2]): > 50000 nM
Velocity distribution (%) [1]: *** (***, >100%)
HDAC6 selectivity (fold) (human recombinant HDAC6; HDAC1 IC50 / HDAC6 IC50): 739 fold
IC50 (human recombinant HDAC6; [3]): 67.6 nM

CC1CCN(Cc2c[nH]c3cc(-c4cn(Cc5ccc(-c6nnc(C(F)F)o6)cc5F)nn4)ccc23)CC1 [Compound 4110, 2-(difluoromethyl)-5-(3-fluoro-4-((4-(3-((4-methylpiperidin-1-yl)methyl)-1H-indol-6-yl)-1H-1,2,3-triazol-1-yl)methyl)phenyl)-1,3,4-oxadiazole]
IC50 (human recombinant HDAC1; [2]): > 50000 nM
Velocity distribution (%) [1]: ** (**, 50%˜100%)
HDAC6 selectivity (fold) (human recombinant HDAC6; HDAC1 IC50 / HDAC6 IC50): 3030 fold
IC50 (human recombinant HDAC6; [3]): 16.5 nM

FC(F)c1nnc(-c2ccc(Cn3cc(-c4ccnc5[nH]ccc45)nn3)nc2)o1 [Compound 3840, 2-(6-((4-(1H-pyrrolo[2,3-b]pyridin-4-yl)-1H-1,2,3-triazol-1-yl)methyl)pyridin-3-yl)-5-(difluoromethyl)-1,3,4-oxadiazole]
IC50 (human recombinant HDAC1; [2]): > 50000 nM
Velocity distribution (%) [1]: ** (**, 50%˜100%)
HDAC6 selectivity (fold) (human recombinant HDAC6; HDAC1 IC50 / HDAC6 IC50): 5681 fold
IC50 (human recombinant HDAC6; [3]): 8.8 nM

FC(F)c1nnc(-c2ccc(Cn3cc(-c4cccc5[nH]ccc45)nn3)nc2)o1 [Compound 3839, 2-(6-((4-(1H-indol-4-yl)-1H-1,2,3-triazol-1-yl)methyl)pyridin-3-yl)-5-(difluoromethyl)-1,3,4-oxadiazole]
IC50 (human recombinant HDAC1; [2]): > 50000 nM
Velocity distribution (%) [1]: * (*, 0%˜50%)
HDAC6 selectivity (fold) (human recombinant HDAC6; HDAC1 IC50 / HDAC6 IC50): 6756 fold
IC50 (human recombinant HDAC6; [3]): 7.4 nM

Fc1cc(-c2nnc(C(F)F)o2)ccc1Cn1cc(-c2ccc(CN3CCCC3)cn2)nn1 [Compound 17533, 2-(difluoromethyl)-5-(3-fluoro-4-((4-(5-(pyrrolidin-1-ylmethyl)pyridin-2-yl)-1H-1,2,3-triazol-1-yl)methyl)phenyl)-1,3,4-oxadiazole]
IC50 (human recombinant HDAC1; [4]): > 50000 nM
Velocity distribution (%) [1]: * (*, 0%˜50%)
HDAC6 selectivity (fold) (human recombinant HDAC6; HDAC6 over HDAC1): 2272 fold
IC50 (human recombinant HDAC6; [5]): 22 nM

Fc1cc(-c2nnc(C(F)F)o2)ccc1Cn1cc(-c2ccccc2)nn1 [Compound 3658, 2-(difluoromethyl)-5-(3-fluoro-4-((4-phenyl-1H-1,2,3-triazol-1-yl)methyl)phenyl)-1,3,4-oxadiazole]
IC50 (human recombinant HDAC1; [2]): > 50000 nM
Velocity distribution (%) [1]: * (*, 0%˜50%)
HDAC6 selectivity (fold) (human recombinant HDAC6; HDAC1 IC50 / HDAC6 IC50): 863 fold
IC50 (human recombinant HDAC6; [3]): 57.9 nM

FC(F)c1nnc(-c2ccc(Cn3cc(-c4cccc(NC5CCCCC5)c4)nn3)nc2)o1 [Compound 3828, N-cyclohexyl-3-(1-((5-(5-(difluoromethyl)-1,3,4-oxadiazol-2-yl)pyridin-2-yl)methyl)-1H-1,2,3-triazol-4-yl)aniline]
IC50 (human recombinant HDAC1; [2]): > 50000 nM
Velocity distribution (%) [1]: * (*, 0%˜50%)
HDAC6 selectivity (fold) (human recombinant HDAC6; HDAC1 IC50 / HDAC6 IC50): 1196 fold
IC50 (human recombinant HDAC6; [3]): 41.8 nM

CN1CCN(c2cccc(-c3cn(Cc4ccc(-c5nnc(C(F)F)o5)cc4)nn3)c2)CC1 [Compound 4336, 2-(difluoromethyl)-5-(4-((4-(3-(4-methylpiperazin-1-yl)phenyl)-1H-1,2,3-triazol-1-yl)methyl)phenyl)-1,3,4-oxadiazole]
IC50 (human recombinant HDAC1; [2]): > 50000 nM
Velocity distribution (%) [1]: *** (***, >100%)
HDAC6 selectivity (fold) (human recombinant HDAC6; HDAC1 IC50 / HDAC6 IC50): 1543 fold
IC50 (human recombinant HDAC6; [3]): 32.4 nM

FC(F)c1nnc(-c2ccc(Cn3nnc(-c4ccccc4)n3)nc2)o1 [Compound 4234, 2-(difluoromethyl)-5-(6-((5-phenyl-2H-tetrazol-2-yl)methyl)pyridin-3-yl)-1,3,4-oxadiazole]
IC50 (human recombinant HDAC1; [2]): > 50000 nM
Velocity distribution (%) [1]: *** (***, >100%)

Fc1cc(-c2nnc(C(F)F)o2)ccc1Cn1cc(-c2ccc3[nH]ncc3c2)nn1 [Compound 4345, 2-(4-((4-(1H-indazol-5-yl)-1H-1,2,3-triazol-1-yl)methyl)-3-fluorophenyl)-5-(difluoromethyl)-1,3,4-oxadiazole]
IC50 (human recombinant HDAC1; [2]): > 50000 nM
Velocity distribution (%) [1]: * (*, 0%˜50%)

FC(F)c1nnc(-c2ccc(Cn3cc(-c4ccc5cn[nH]c5c4)nn3)nc2)o1 [Compound 4340, 2-(6-((4-(1H-indazol-6-yl)-1H-1,2,3-triazol-1-yl)methyl)pyridin-3-yl)-5-(difluoromethyl)-1,3,4-oxadiazole]
IC50 (human recombinant HDAC1; [2]): > 50000 nM
HDAC6 selectivity (fold) (human recombinant HDAC6; HDAC1 IC50 / HDAC6 IC50): 7575 fold
IC50 (human recombinant HDAC6; [3]): 6.6 nM

CC(C)(F)C(=O)Nc1cccc(-c2cn(Cc3ccc(-c4nnc(C(F)F)o4)cc3)nn2)c1 [Compound 4328, N-(3-(1-(4-(5-(difluoromethyl)-1,3,4-oxadiazol-2-yl)benzyl)-1H-1,2,3-triazol-4-yl)phenyl)-2-fluoro-2-methylpropanamide]
IC50 (human recombinant HDAC1; [2]): > 50000 nM
HDAC6 selectivity (fold) (human recombinant HDAC6; HDAC1 IC50 / HDAC6 IC50): 846 fold
IC50 (human recombinant HDAC6; [3]): 59.1 nM

Fc1cc(-c2nnc(C(F)F)o2)cnc1Cn1cc(-c2cccnc2)nn1 [Compound 18305, 2-(difluoromethyl)-5-(5-fluoro-6-((4-(pyridin-3-yl)-1H-1,2,3-triazol-1-yl)methyl)pyridin-3-yl)-1,3,4-oxadiazole]
IC50 (human recombinant HDAC1; [4]): > 50000 nM
HDAC6 selectivity (fold) (human recombinant HDAC6; HDAC6 over HDAC1): 539 fold
IC50 (human recombinant HDAC6; [5]): 92.7 nM

FC(F)c1nnc(-c2ccc(Cn3cc(-c4cc(C(F)(F)F)cc(C(F)(F)F)c4)nn3)cc2)o1 [Compound 3695, 2-(4-((4-(3,5-bis(trifluoromethyl)phenyl)-1H-1,2,3-triazol-1-yl)methyl)phenyl)-5-(difluoromethyl)-1,3,4-oxadiazole]
IC50 (human recombinant HDAC1; [2]): > 50000 nM
HDAC6 selectivity (fold) (human recombinant HDAC6; HDAC1 IC50 / HDAC6 IC50): 42 fold
IC50 (human recombinant HDAC6; [3]): 1190 nM

Fc1cc(-c2nnc(C(F)F)o2)ccc1Cn1cc(-c2cccc(N3CCN(CC4CC(F)(F)C4)CC3)c2F)nn1 [Compound 4603, 2-(4-((4-(3-(4-((3,3-difluorocyclobutyl)methyl)piperazin-1-yl)-2-fluorophenyl)-1H-1,2,3-triazol-1-yl)methyl)-3-fluorophenyl)-5-(difluoromethyl)-1,3,4-oxadiazole]
IC50 (human recombinant HDAC1; [4]): > 50000 nM
HDAC6 selectivity (fold) (human recombinant HDAC6; HDAC6 over HDAC1): 744 fold
IC50 (human recombinant HDAC6; [5]): 67.2 nM
